The values below come from US20220002226A1, “Amorphous Form of Chelating Agents and Process for Preparing them” (Hovione Scientia Limited, priority 2018, published 2022).

A short description of data set [1]: Solubility test according to European Pharmacopoeia (Ph. Eur. 5.11): increasing amounts of water added to 100 mg of powder. It counts as physicochemical. The following applies: 22° C.; for 100 mg dissolved in stated volume of water (YES/No): 100 mg powder. As to the method: Characters section in monographs. This was used in the tests below.
Solubility was assessed using the European Pharmacopeia method referred to above where increasing amounts of water are added to 100 mg of powder until its complete dissolution (or otherwise).
Characters section in monographs.

For data set [2] the following is noted: cited from earlier work.
Setting [3] is: 0.1 ml water, Ph. Eur. class Very soluble.
Setting [4] is: 1.0 ml water, Ph. Eur. class Freely soluble.
[5] abbreviates: 3.0 ml water, Ph. Eur. class Soluble.
Where [6] appears, read: 10.0 ml water, Ph. Eur. class Sparingly soluble.
Setting [7] is: 20.0 ml water, Ph. Eur. class Slightly soluble.
Where [8] appears, read: 30.0 ml water, Ph. Eur. class Very slightly soluble.
The mark [9] stands for this setting: 40.0 ml water, Ph. Eur. class Insoluble.
Where [10] appears, read: 50.0 ml water, Ph. Eur. class printed Insoluble (Tables 2, 6), Very slightly soluble (Table 4).
Where [11] appears, read: 60.0 ml water, Ph. Eur. class Insoluble.
Where [12] appears, read: 70.0 ml water, Ph. Eur. class Insoluble.
[13] abbreviates: 80.0 ml water, Ph. Eur. class Insoluble.

Molecules are shown by their SMILES.

In the case of `O=C(O)CN(CCN(CC(=O)O)CC(=O)O)CCN(CC(=O)O)CC(=O)O` [DTPA Amorphous pharma grade, diethylenetriaminepentaacetic acid], the “100 mg dissolved in stated volume of water (YES/No)” value (shortened to “100 mg dissolved … (YES/No)”) is “No” in data set [1] (setting [3]); “No” in data set [1] (setting [4]); “No” in data set [1] (setting [5]); “No” in data set [1] (setting [6]); “No” in data set [1] (setting [7]); “YES” in data set [1] (setting [8]). Moreover, in data set [1] (Ph. Eur. solubility test, water), the “solubility compared with the corresponding crystalline form” value is recorded as “higher solubility”.
Take `O=C(O)CN(CCN(CC(=O)O)CC(=O)O)CCN(CC(=O)O)CC(=O)O` [DTPA Crystalline Industrial grade, diethylenetriaminepentaacetic acid]: the “100 mg dissolved … (YES/No)” value in data set [1] (setting [3]), in data set [1] (setting [4]), in data set [1] (setting [5]), in data set [1] (setting [6]), in data set [1] (setting [7]) and in data set [1] (setting [8]) was “No” in each case. In addition, the “100 mg dissolved … (YES/No)” value in data set [1] (setting [9]) was “No”; in data set [1] (setting [10]), “No”; in data set [1] (setting [11]) it was “No”; in data set [1] (setting [12]) it was “No”; in data set [1] (setting [13]), “YES”.
Regarding `O=C(O)CN(CCN(CC(=O)O)CC(=O)O)CCN(CC(=O)O)CC(=O)O` [DTPA Crystalline pharma grade, diethylenetriaminepentaacetic acid], the “100 mg dissolved … (YES/No)” value in data set [1] (setting [3]), in data set [1] (setting [4]), in data set [1] (setting [5]), in data set [1] (setting [6]), in data set [1] (setting [7]) and in data set [1] (setting [8]) was “No” each time. Besides, the “100 mg dissolved … (YES/No)” value in data set [1] (setting [9]) is reported as “No”; in data set [1] (setting [10]), “No”; in data set [1] (setting [11]), “No”; in data set [1] (setting [12]), “No”; in data set [1] (setting [13]), “YES”.
Consider `O=C(O)CN(CCN(CC(=O)O)CC(=O)O)CCN(CC(=O)O)CC(=O)O` [DTPA, diethylenetriaminepentaacetic acid], for which the “solubility in water (prior-art statement)” value in data set [2] was “soluble in water only at higher pH (around 8)”.
